According to patent US20170368082A1, “FORMULATIONS OF BRINCIDOFOVIR” (priority 2016, published 2017):
Read-outs that look alike come from different tables or passages of the source.

Experiment: Phase 2 toxicokinetics of brincidofovir and cidofovir in plasma
Assay type: in vivo, Sprague-Dawley CD rats
Details: for Tmax: Sprague-Dawley CD, rat, plasma, iv, read-out: Median Tmax; for AUClast/Dose / Cmax/Dose / Tlast: brincidofovir in plasma, 1 mg/kg 2-hour IV infusion, Female rats
Method: Plasma samples (108) were collected 2 hours following the initiation of dosing on Day 1 and Day 7 (Group 1), or at 1, 2, 8, and 24 hours following the initiation of dosing on Day 1, and prior to administration and at 2, 8, and 24 hours following the initiation of dosing on Day 7 (Groups 2 and 3), and analyzed to determine the concentrations of brincidofovir and the metabolite, cidofovir), by LC/MS/MS.
Approximately 0.4 mL of whole blood was obtained via the tail vein from each animal at each time point. Animals were not fasted prior to blood collection. Blood was collected into tubes containing K2EDTA anticoagulant and placed on wet ice in an upright position, per facility SOP prior to processing. Plasma was separated by centrifugation (10 minutes at approximately 2000 g, at approximately 2-8° C.). Approximately 0.10 mL of plasma was transferred into a single cryotube appropriately labeled with study number, animal number, time point, date of sampling and sample type. Remaining plasma was transferred into a second cryotube and retained as a backup sample. Plasma frozen at approximately −80±10° C. within approximately 2 hours after collection of each blood sample until analysis. Animals were euthanized (CO2 inhalation) after the final blood collection.
In general, TK parameters were estimated using mean plasma concentrations of brincidofovir and cidofovir derived from the composite blood sampling design using Phoenix WinNonLin (V 6.3).
A composite blood sampling design was used such that each rat was sampled twice per sampling day. Blood was collected via tail vein from unanesthetized animals into tubes containing anticoagulant and placed on wet ice in an upright position. Animals were not fasted prior to blood collection. Plasma was separated by centrifugation (for 10 minutes at approximately 2000 g, at approximately 2-8° C.), and transferred into individually labeled cryotubes. All cryotubes containing the collected plasma samples were appropriately labeled as to study number, animal number, time point, date of sampling and sample type. All plasma samples were obtained and frozen at approximately −80° C. (±10° C.) within approximately 2 hours after collection of each blood sample until analysis.
Rat plasma bioanalysis was conducted by Pyxant Laboratories. Plasma samples were analyzed for concentrations of brincidofovir and cidofovir using a method based upon protein precipitation extraction followed by LC-MS/MS analysis; calibration ranges for brincidofovir and cidofovir were 1.00-1500 ng/mL and 5.00-750 ng/mL, respectively, (Pyxant study number 3025) for a 50 μL aliquot of rat plasma. Sample analysis for ISR was not performed as part of this non-GLP study.
For the generation of Mean Profiles, all sample concentrations that were below the limit of quantitation (BLQ) were set to 0.
All pharmacokinetic parameter estimates were completed using a Non-Compartmental Model (Model 200-202 for IV infusion administration). The AUClast and AUCinf were calculated using the linear up log down trapezoidal rule.

[1] = brincidofovir 1 mg/kg, Male, Day 1, 1 h
[2] = brincidofovir 1 mg/kg, Male, Day 1, 2 h
[3] = brincidofovir 1 mg/kg, Male, Day 7, 0 h
[4] = brincidofovir 1 mg/kg, Male, Day 7, 2 h
[5] = brincidofovir 15 mg/kg, Female, Day 1, 1 h
[6] = brincidofovir 15 mg/kg, Female, Day 1, 2 h
[7] = brincidofovir 15 mg/kg, Female, Day 1, 8 h
[8] = brincidofovir 15 mg/kg, Female, Day 1, 24 h
[9] = brincidofovir 15 mg/kg, Female, Day 7, 0 h
[10] = brincidofovir 15 mg/kg, Female, Day 7, 2 h
[11] = brincidofovir 15 mg/kg, Female, Day 7, 8 h
[12] = brincidofovir 15 mg/kg, Female, Day 7, 24 h
[13] = brincidofovir 15 mg/kg, Male, Day 1, 1 h
[14] = brincidofovir 15 mg/kg, Male, Day 1, 2 h
[15] = brincidofovir 15 mg/kg, Male, Day 1, 8 h
[16] = brincidofovir 15 mg/kg, Male, Day 7, 0 h
[17] = brincidofovir 15 mg/kg, Male, Day 7, 2 h

CCCCCCCCCCCCCCCCOCCCOP(=O)(O)CO[C@H](CO)Cn1ccc(N)nc1=O [Brincidofovir]
Difference in Cmax between female and male (1 or 15 mg/kg, Days 1 and 7): ≤ 54% | Tmax (1 mg/kg, single and twice weekly 1 mg/kg): 2 h | Tmax (15 mg/kg, single 15 mg/kg): 1 h | Tmax (15 mg/kg, twice weekly 15 mg/kg): 2 h | brincidofovir Mean Concentration (MC) (brincidofovir 1 mg/kg, Female, Day 7, 24 h): 0.00 ng/mL | brincidofovir Imputed Mean Concentration (IMC) [1]: 227 ng/mL | brincidofovir Mean Concentration (MC) [1]: 227 ng/mL | brincidofovir Imputed Mean Concentration (IMC) [2]: 235 ng/mL | brincidofovir Mean Concentration (MC) [2]: 235 ng/mL | brincidofovir Mean Concentration (MC) (brincidofovir 1 mg/kg, Male, Day 1, 8 h): 0.00 ng/mL | brincidofovir Mean Concentration (MC) (brincidofovir 1 mg/kg, Male, Day 1, 24 h): 0.00 ng/mL | brincidofovir Imputed Mean Concentration (IMC) [3]: 0.00 ng/mL | brincidofovir Mean Concentration (MC) [3]: 0.00 ng/mL | brincidofovir Imputed Mean Concentration (IMC) [4]: 208 ng/mL | brincidofovir Mean Concentration (MC) [4]: 208 ng/mL | brincidofovir Mean Concentration (MC) (brincidofovir 1 mg/kg, Male, Day 7, 8 h): 0.00 ng/mL | brincidofovir Mean Concentration (MC) (brincidofovir 1 mg/kg, Male, Day 7, 24 h): 0.00 ng/mL | brincidofovir Imputed Mean Concentration (IMC) [5]: 3470 ng/mL | brincidofovir Mean Concentration (MC) [5]: 3470 ng/mL | brincidofovir Imputed Mean Concentration (IMC) [6]: 2570 ng/mL | brincidofovir Mean Concentration (MC) [6]: 2570 ng/mL | brincidofovir Imputed Mean Concentration (IMC) [7]: 6.53 ng/mL | brincidofovir Mean Concentration (MC) [7]: 6.53 ng/mL | brincidofovir Imputed Mean Concentration (IMC) [8]: 2.02 ng/mL | brincidofovir Mean Concentration (MC) [8]: 2.02 ng/mL | brincidofovir Imputed Mean Concentration (IMC) [9]: 0.00 ng/mL | brincidofovir Mean Concentration (MC) [9]: 0.00 ng/mL | brincidofovir Imputed Mean Concentration (IMC) [10]: 1660 ng/mL | brincidofovir Mean Concentration (MC) [10]: 1660 ng/mL | brincidofovir Imputed Mean Concentration (IMC) [11]: 5.45 ng/mL | brincidofovir Mean Concentration (MC) [11]: 5.45 ng/mL | brincidofovir Imputed Mean Concentration (IMC) [12]: 0.790 ng/mL | brincidofovir Mean Concentration (MC) [12]: 0.790 ng/mL | brincidofovir Imputed Mean Concentration (IMC) [13]: 4370 ng/mL | brincidofovir Mean Concentration (MC) [13]: 4370 ng/mL | brincidofovir Imputed Mean Concentration (IMC) [14]: 2840 ng/mL | brincidofovir Mean Concentration (MC) [14]: 2840 ng/mL | brincidofovir Imputed Mean Concentration (IMC) [15]: 9.59 ng/mL | brincidofovir Mean Concentration (MC) [15]: 9.59 ng/mL | brincidofovir Imputed Mean Concentration (IMC) [16]: 0.00 ng/mL | brincidofovir Mean Concentration (MC) [16]: 0.00 ng/mL | brincidofovir Imputed Mean Concentration (IMC) [17]: 1910 ng/mL | brincidofovir Mean Concentration (MC) [17]: 1910 ng/mL | brincidofovir Mean Concentration (MC) (brincidofovir 15 mg/kg, Male, Day 7, 8 h): 8.72 ng/mL | AUClast/Dose (Day 1): 459 (h*ng/mL)/(mg/kg) | Cmax/Dose (Day 1): 191 (ng/mL)/(mg/kg) | Tlast (Day 1): 8 h | AUClast/Dose (Day 7): 244 (h*ng/mL)/(mg/kg) | Cmax/Dose (Day 7): 95.4 (ng/mL)/(mg/kg) | Tlast (Day 7): 8 h
